Assay results reported in US4857513A, “Diphosphonic acid compounds, processes for the preparation thereof and pharmaceutical composition comprising the same” (Fujisiwa Pharmaceutical Co., Ltd., priority 1986, dated 1989).
Structures can show the parent of a compound that is named as a salt.

Tested on: Neonatal calvaria (hPTH (1-34)-treated)
Assay: Inhibition of hPTH (1-34)-stimulated bone resorption in cultured neonatal rat calvaria (calcium accumulation in medium at 6 days)
Assay type: cell-based, rat (Wistar)
Conditions: 144 h, hPTH (1-34) 1×10^-8 M, 37° C.; for inhibition at 1 µM: Dose 1 × 10^-6 M; for inhibition at 0.1 µM: Dose 1 × 10^-7 M
Method: Neonatal calvaria were dissected aseptically from 1-2 day old rat (Wistar), washed in Dulbecco's modified eagle's medium and divided along the sagittal suture. The calvaria halves were pooled and randomized in the different groups. The calvaria halves were cultured separately as free-floating bones in multi-well dishes containing a 2 ml of Dulbecco's modified eagle's medium, with 10% heat-inactivated (56° C. for 1 hr) fetal calf serum. Treatment of hPTH (1-34) (1×10^-8 M) and the Test Compound (1×10^-7 or 1×10^-6 M) was begun at zero time. All incubations were performed at 37° C., under an atmosphere of 95% air and 5% CO2 for 6 days. Bone resporption was determined by measuring the accumulation of calcium in the medium at 6 days. The concentration of total calcium in culture medium was measured by OCPC method with a spectrophotometer (Hitachi model U-3200, Tokyo, Japan).
As comparative data, similar tests were conducted using culture medium with hPTH (1×10^-8 M) only, and culture medium without both hPTH and Test Compound.
Test results were represented in terms of percentage of inhibition calculated by the following formula: [formula] CD : the concentration of total calcium in culture medium treated with both hPTH and Test Compound
CO : the concentration of total calcium in control culture medium without both hPTH and Test Compound
CP : the concentration of total calcium in culture medium treated with hPTH only

SMILES | inhibition at 1 µM [%] | inhibition at 0.1 µM [%]
O=C(Nc1ccc(Cl)cc1)C(P(=O)(O)O)P(=O)(O)O [Test Compound (b), Tris(tert-butylamine) salt of [N-(4-chlorophenyl)carbamoylmethylene]bis(phosphonic acid)] | 56.9 | 46.6
O=P(O)(O)C(C(=S)Nc1ccc(C(F)(F)F)cc1)P(=O)(O)O [Test Compound (e), Disodium salt of [N-(4-trifluoromethylphenyl)thiocarbamoylmethylene]bis(phosphonic acid)] | 65.9 | 
O=P(O)(O)C(C(=S)Nc1ccc(Cl)cc1)P(=O)(O)O [Test Compound (c), Tris(tert-butylamine)salt of [N-(4-chlorophenyl)thiocarbamoylmethylene]bis(phosphonic acid)] | 57 | 
O=P(O)(O)C(C(=S)Nc1ccc(Cl)c(C(F)(F)F)c1)P(=O)(O)O [Test Compound (g), Disodium salt of [N-(4-chloro-3-trifluoromethylphenyl)thiocarbamoylmethylene]bis(phosphonicacid)] | 112 | 
COc1ccc(NC(=S)C(P(=O)(O)O)P(=O)(O)O)cc1C(F)(F)F [Test Compound (h), Disodium salt of [N-(4-methoxy-3-trifluoromethylphenyl)thiocarbamoylmethylene]bis(phosphonic acid)] | 77.7 | 
O=P(O)(O)C(C(=S)Nc1cccc(C(F)(F)F)c1)P(=O)(O)O [Test Compound (f), Disodium salt of [N-(3-trifluoromethylphenyl)thiocarbamoylmethylene]bis(phosphonic acid)] | 68.9 | 
O=C(NC(P(=O)(O)O)P(=O)(O)O)c1ccc2ccccc2n1 [Test Compound (j), Tris(tert-butylamine)salt of [(2-quinolinecarboxamido)methylene]bis(phosphonic acid)] | 53.8 | 46.9
CS(=O)(=O)Nc1cccc(NC(=S)C(P(=O)(O)O)P(=O)(O)O)c1 [Test Compound (l), Disodium salt of [N-(3-mesylaminophenyl)thiocarbamoylmethylene]bis(phosphonic acid)] | 52.4 | 
O=P(O)(O)C(C(=S)Nc1cc2ccccc2s1)P(=O)(O)O [Test Compound (d), Disodium salt of [N-(2-benzo[b]thienyl)thiocarbamoylmethylene]bis(phosphonic acid)] | 59.7 | 
O=P(O)(O)C(NS(=O)(=O)c1ccc(Cl)cc1)P(=O)(O)O [Test Compound (k), Disodium salt of [(4-chlorophenyl)sulfonylaminomethylene]bis(phosphonicacid)] | 71 | 
O=C(NC(P(=O)(O)O)P(=O)(O)O)c1cc2ccccc2s1 [Test Compound (i), Bis(tert-butylamine)salt of [(2-benzo[b]thiophenecarboxamido)methylene]bis(phosphonic acid)] |  | 45
O=P(O)(O)C(C(=S)Nc1ccccc1)P(=O)(O)O [Test Compound (a), Tris(tert-butylamine) salt of [N-(phenyl)thiocarbamoylmethylene]bis(phosphonic acid)] | 66.3 | 54.3
